Laboratory results reported in the NIST ThermoML archive (doi:10.1016/j.jct.2017.08.004).

Test: molar heat capacity at constant pressure
Details: 101.33 kPa, Crystal

OC[C@@H](O)C(O)[C@H](O)CO [D-arabitol]
Details | molar heat capacity at constant pressure [J/K/mol]
1 K, relaxation calorimetry | 0.0009451
1.937 K, relaxation calorimetry | 0.004787
2 K, relaxation calorimetry | 0.005256
2.125 K, relaxation calorimetry | 0.006243
2.35 K, relaxation calorimetry | 0.008303
2.6 K, relaxation calorimetry | 0.01105
2.887 K, relaxation calorimetry | 0.01495
3 K, relaxation calorimetry | 0.01673
3.199 K, relaxation calorimetry | 0.02023
3.546 K, relaxation calorimetry | 0.02753
3.931 K, relaxation calorimetry | 0.03744
4 K, relaxation calorimetry | 0.04001
4.359 K, relaxation calorimetry | 0.05185
4.836 K, relaxation calorimetry | 0.07292
5 K, relaxation calorimetry | 0.08105
5.366 K, relaxation calorimetry | 0.1017
5.953 K, relaxation calorimetry | 0.1443
6 K, relaxation calorimetry | 0.1475
6.605 K, relaxation calorimetry | 0.205
7 K, relaxation calorimetry | 0.2508
7.334 K, relaxation calorimetry | 0.2964
8 K, relaxation calorimetry | 0.4038
8.14 K, relaxation calorimetry | 0.43
9 K, relaxation calorimetry | 0.6157
9.034 K, relaxation calorimetry | 0.6226
10 K, relaxation calorimetry | 0.8917
10.11 K, relaxation calorimetry | 0.9222
11.21 K, relaxation calorimetry | 1.313
12.44 K, relaxation calorimetry | 1.849
13.81 K, relaxation calorimetry | 2.558
15 K, relaxation calorimetry | 3.255
15.35 K, relaxation calorimetry | 3.473
17.03 K, relaxation calorimetry | 4.645
18.91 K, relaxation calorimetry | 6.093
20 K, relaxation calorimetry | 6.963
21.01 K, relaxation calorimetry | 7.823
23.33 K, relaxation calorimetry | 9.878
25 K, relaxation calorimetry | 11.45
25.91 K, relaxation calorimetry | 12.28
28.73 K, relaxation calorimetry | 15.02
30 K, relaxation calorimetry | 16.29
31.9 K, relaxation calorimetry | 18.17
35 K, relaxation calorimetry | 21.27
35.42 K, relaxation calorimetry | 21.72
39.33 K, relaxation calorimetry | 25.68
40 K, relaxation calorimetry | 26.29
43.65 K, relaxation calorimetry | 29.96
45 K, relaxation calorimetry | 31.26
48.46 K, relaxation calorimetry | 34.52
50 K, relaxation calorimetry | 36.09
53.77 K, relaxation calorimetry | 39.56
55 K, relaxation calorimetry | 40.76
59.7 K, relaxation calorimetry | 45.1
60 K, relaxation calorimetry | 45.36
65 K, relaxation calorimetry | 49.82
66.28 K, relaxation calorimetry | 51.01
70 K, relaxation calorimetry | 54.16
73.58 K, relaxation calorimetry | 57.16
75 K, relaxation calorimetry | 58.37
80 K, relaxation calorimetry | 62.48
81.67 K, relaxation calorimetry | 64.04
85 K, relaxation calorimetry | 66.48
90 K, relaxation calorimetry | 70.37
90.67 K, relaxation calorimetry | 71
95 K, relaxation calorimetry | 74.17
100 K, relaxation calorimetry | 77.87
100.64 K, relaxation calorimetry | 77.78
110 K, relaxation calorimetry | 85.02
110.77 K, relaxation calorimetry | 85.2
120 K, relaxation calorimetry | 91.85
120.77 K, relaxation calorimetry | 92.62
130 K, relaxation calorimetry | 98.42
130.79 K, relaxation calorimetry | 99.38
140 K, relaxation calorimetry | 104.78
140.95 K, relaxation calorimetry | 105.44
150 K, relaxation calorimetry | 110.97
151.07 K, relaxation calorimetry | 111.74
160 K, relaxation calorimetry | 117.04
161.18 K, relaxation calorimetry | 117.79
170 K, relaxation calorimetry | 123.02
171.3 K, relaxation calorimetry | 123.63
180 K, relaxation calorimetry | 128.94
181.38 K, relaxation calorimetry | 129.86
188.15 K, Small sample (50 mg) DSC | 120.48
189.15 K, Small sample (50 mg) DSC | 123.07
190 K, relaxation calorimetry | 134.84
190.15 K, Small sample (50 mg) DSC | 124.65
191.15 K, Small sample (50 mg) DSC | 125.58
191.48 K, relaxation calorimetry | 135.82
192.15 K, Small sample (50 mg) DSC | 126.38
193.15 K, Small sample (50 mg) DSC | 127.14
194.15 K, Small sample (50 mg) DSC | 128.51
195.15 K, Small sample (50 mg) DSC | 129.68
196.15 K, Small sample (50 mg) DSC | 130.93
197.15 K, Small sample (50 mg) DSC | 131.96
198.15 K, Small sample (50 mg) DSC | 132.82
199.15 K, Small sample (50 mg) DSC | 133.79
200 K, relaxation calorimetry | 140.73
200.15 K, Small sample (50 mg) DSC | 134.6
201.15 K, Small sample (50 mg) DSC | 135.54
201.59 K, relaxation calorimetry | 141.2
202.15 K, Small sample (50 mg) DSC | 136.28
203.15 K, Small sample (50 mg) DSC | 137.06
204.15 K, Small sample (50 mg) DSC | 137.97
205.15 K, Small sample (50 mg) DSC | 138.38
206.15 K, Small sample (50 mg) DSC | 139.19
207.15 K, Small sample (50 mg) DSC | 139.97
208.15 K, Small sample (50 mg) DSC | 140.52
209.15 K, Small sample (50 mg) DSC | 141.24
210 K, relaxation calorimetry | 146.63
210.15 K, Small sample (50 mg) DSC | 141.94
211.15 K, Small sample (50 mg) DSC | 142.48
211.7 K, relaxation calorimetry | 147.25
212.15 K, Small sample (50 mg) DSC | 142.99
213.15 K, Small sample (50 mg) DSC | 143.53
214.15 K, Small sample (50 mg) DSC | 144.41
215.15 K, Small sample (50 mg) DSC | 145.07
216.15 K, Small sample (50 mg) DSC | 145.48
217.15 K, Small sample (50 mg) DSC | 146.17
218.15 K, Small sample (50 mg) DSC | 147.07
219.15 K, Small sample (50 mg) DSC | 147.64
220 K, relaxation calorimetry | 152.57
220.15 K, Small sample (50 mg) DSC | 148.47
221.15 K, Small sample (50 mg) DSC | 149.24
221.79 K, relaxation calorimetry | 153.65
222.15 K, Small sample (50 mg) DSC | 149.98
223.15 K, Small sample (50 mg) DSC | 150.71
224.15 K, Small sample (50 mg) DSC | 151.3
225.15 K, Small sample (50 mg) DSC | 152.01
226.15 K, Small sample (50 mg) DSC | 152.68
227.15 K, Small sample (50 mg) DSC | 153.31
228.15 K, Small sample (50 mg) DSC | 153.85
229.15 K, Small sample (50 mg) DSC | 154.52
230 K, relaxation calorimetry | 158.55
230.15 K, Small sample (50 mg) DSC | 155.25
231.15 K, Small sample (50 mg) DSC | 155.76
231.88 K, relaxation calorimetry | 159.8
232.15 K, Small sample (50 mg) DSC | 156.46
233.15 K, Small sample (50 mg) DSC | 157.18
234.15 K, Small sample (50 mg) DSC | 157.71
235.15 K, Small sample (50 mg) DSC | 158.49
236.15 K, Small sample (50 mg) DSC | 159.12
237.15 K, Small sample (50 mg) DSC | 159.84
238.15 K, Small sample (50 mg) DSC | 160.39
239.15 K, Small sample (50 mg) DSC | 160.99
240 K, relaxation calorimetry | 164.59
240.15 K, Small sample (50 mg) DSC | 161.64
241.15 K, Small sample (50 mg) DSC | 162.22
241.88 K, relaxation calorimetry | 165.73
242.15 K, Small sample (50 mg) DSC | 162.77
243.15 K, Small sample (50 mg) DSC | 163.32
244.15 K, Small sample (50 mg) DSC | 163.71
245.15 K, Small sample (50 mg) DSC | 164.33
246.15 K, Small sample (50 mg) DSC | 165.01
247.15 K, Small sample (50 mg) DSC | 165.5
248.15 K, Small sample (50 mg) DSC | 166.22
249.15 K, Small sample (50 mg) DSC | 167
250 K, relaxation calorimetry | 170.71
